In patent US9518038B2, “Condensation product of theanine derivative and carboxylic acid coumarin derivative, its intermediate, preparation method and use thereof” (SHANDONG YINGDONG YINGHAO BIOTECHNOLOGY, INC., priority 2012, dated 2016):
“And” between values parts separate entries of the source, which are not always exact repeats. Equal entries are not always repeated. Where two headings read alike, the source gives them in different places.

Assays:
EZH2 [1] = target: T1, EZH2 (Mus musculus, UniProt Q61188); experiment: EZH2 enzyme activity in protein extracts of LLC tumors of treated mice (EZH2 Assay Kit); settings: mouse; LLC tumor grown in vivo; tumors excised 6 h after medication; SAHA 25 mg/kg; read-out: decrease of EZH2 enzyme activity/inhibition rate
T1 construct: the EZH2 enzyme was replaced with tumor protein extracts in each group; from tissue; host or cells: Lewis lung cancer tumours from treated mice

EZH2 [2] = target: T2, EZH2 (Homo sapiens, UniProt Q15910); experiment: EZH2 enzyme activity in protein extracts of human tumor xenografts of treated mice (EZH2 Assay Kit); assay type: in vivo; settings: tumors excised 6 h after medication, SAHA 25 mg/kg; for inhibition: read-out: decrease of EZH2 enzyme activity/inhibition rate
T2 construct: the EZH2 enzyme was replaced with tumor protein extracts in each group; from tissue; host or cells: human tumour xenografts excised from treated nude mice

[3] = system: human lung cancer cells A549; experiment: MTT growth inhibition, A549 cells; assay type: cell-based; settings: 72 h after treatment, read-out: Drug concentration (IC50) at which 50% cancer cells survived
Excerpt: (§1) Cell lines and cell culture: human lung cancer cells A549 and H460, human breast cancer cells MCF-7 and MDA-MB-231, human gastric cancer cells BGC-823, human prostate cancer cells PC-3, human chronic leukemia cells K562, human lymphoma cells U937, human liver cancer cells SMMC7721 and HepG2, human colon cancer cells HT29, human pancreatic cancer cells PANC-1 and BxPC3, human cervical cancer Hela cell lines, human brain tumor cells Daoy, human neuroma cells D54 and human oral epidermoid cancer cells KBV200 line with strong drug resistance, mouse melanoma cells B16, and highly metastatic Lewis lung cancer cell lines were purchased from American Type Culture Collection of the U.S. These cells were cultured with DMEM and RPMI-1640 culture solutions separately.
(§2) The procedure was as follows:
(§3) (1) 0.25% trypsin was used to digest cancer cells in a logarithmic growth phase to prepare a single-cell suspension, the concentration of cells was adjusted to 5×10^4/mL, and the adjusted suspension was inoculated into a 96-well culture plate with 100 μl per well;
(§4) (2) The culture plate was transferred into a 37° C. incubator with a saturated humidity and 5% of CO2 and cultured for 24 h; the compounds and the intermediates thereof obtained in embodiments 1-7 and the compound as represented by formula (IIIa) or the positive control anti-cancer drug with the concentration of 1-1000 μM/L were added to enable the final concentration to be 0.1-1500 μM/L. Control wells (only added with 200 μl of cell suspension) and drug-free blank control wells (containing the solvent of 0.01% DMSO) were set, each group included 8 wells, and the plate was placed into the 37° C. incubator with saturated humidity and 5% of CO2 for culturing;
(§5) (3) The 96-well plate was taken out at 48 h and 72 h after dosing, the original culture medium was carefully removed by suction, 100 μl of serum-free DMEM culture medium and 10 μl of MTT (5 mg/mL) solution were added in each well. The plate was continuously cultured for another 4 h and then the culture was terminated;
(§6) (4) The supernatant in the wells was carefully removed by suction, each well was added with 150 μl of DMSO and shaked at room temperature for 10-15 min to fully dissolve crystals.
(§7) (5) Colorimetric analysis: the wavelength was selected as 570 nm, the light absorbance (A value) of each well was determined on the microplate reader and the results were recorded; the experiment was repeated for three times;
(§8) (6) the experimental results were calculated according to the following formula: relative survival rate=(A value of each experimental group/A value of cell control group)×100%
(§9) Calculation of median-effect concentration (IC50, namely the drug concentration at which the inhibition rate is 50%, also known as half inhibitory concentration):
(§10) IC50 of the detected component was calculated by using a regression equation.

p53 = experiment: Western Blotting, increase of p53 level; assay type: cell-based; settings: liver cancer cells, Lewis lung cancer cells and other cancer cell lines and tumor tissue protein lysates, 48 h treatment, read-out: Effective concentration to increase p53 by 50%
Excerpt: (§11) Antibodies: primary antibodies of VEGFR, EGFR, c-Met, K-Ras, H-Ras, Akt, NF-κB, Cyclin D1, ER-alpha, Dvl-1, Dvl-2, Dvl-3, MMP-9, MMP2, β-catenin, Bcl-2, Bax, p53, p21, E-cadherin and Caspase3 protein, purchased from American Cell Signaling Technology Company and Santa Cruz Technology Company; and H3 acetylation, H4 acetylation and HDAC (HDAC3, HDAC4 and the like) Antibody Sample Kits, purchased from Cell Signaling Technology Company of the U.S.
(§12) (3) polyacrylamide gel electrophoresis (SDS-PAGE): an equal amount of protein lysate sample was used to separate protein, film transfer, and blocking, treated with appropriate primary antibodies and secondary antibodies in sequence, and the film was washed, then the color was developed with ECL kit, and a blot protein band was detected by exposure of an X-ray film; and a Gel-Pro Analyzer was used for quantitative analysis of gray degree, optical density value of the control group and the drug treatment group in various concentration were respectively compared with that of internal reference, the obtained ratios were respectively compared with the control group, and the protein expression level was semi-quantified.

[4] = system: human breast cancer cells MDA-MB-231; experiment: MTT growth inhibition, MDA-MB-231 cells; assay type: cell-based; settings: 72 h after treatment, read-out: Drug concentration (IC50) at which 50% cancer cells survived
Excerpt: as §1, §2, §3, §4, §5, §6, §7, §8, §9, §10

[5] = system: nucleoprotein factor NF-κB (p65)-DNA binding activity; experiment: NF-κB (p65)-DNA binding activity (EMSA); assay type: cell-based; settings: EMSA, nuclear protein extracts, 48 h, read-out: Effective concentration for 50% inhibition of binding of nucleoprotein factor NF-kB (p65) and DNA
Excerpt: The in-vitro experiment of the inhibitory effect against the NF-κB(p65)-DNA binding activity was applied with the chemiluminescent EMSA kit of Pierce Biotechnology Company of the U.S., the experimental method was strictly operated according to the description of the kit and the specific procedure were as follows:
(1) Preparation of EMSA gel
The cells treated by the drugs were extracted by the nucleoprotein extract solution (provided by Beyotime Biotechnology of Institute) to obtain the nucleoprotein extracts, and 10 μg/pipe of the nucleoprotein extracts were respectively used for sample reaction and electrophoresis detection and analysis shown in the following table.
(2) Pre-electrophoresis: the gel was fixed in an electrophoresis tank, which was filled with a 0.5×TBE electrophoresis buffer solution, and electrophoresed under 10V/cm for 90 min. The probe binding reaction was as follows:
The components were added in sequence into the EP pipe according to the above table, uniformly mixed and stood at room temperature for 15 min to eliminate possible non-specific binding of probe and protein. 1 μl of biotin-labeled probe NF-κB was respectively added and stood at room temperature for 20 min.
(4) Film transfer: the process of transferring the nucleoprotein factors and the binding probe on the EMSA gel to the nylon film was electrically transferred under 380 mA in ice bath for 40 min.
(5) Ultraviolet cross-linking: the nylon film was placed under a 254 nm ultraviolet lamp and irradiated for 15 min.
(6) Detection of the biotin-labeled probe by chemiluminescence: the cross-linked nylon film was blocked with the blocking solution, a treated film was subjected to X-ray exposure, developing, and fixation according to the requirements of the kit, and the results were analyzed.

Caspase3 = experiment: Western Blotting, increase of Caspase3 level; assay type: cell-based; settings: liver cancer cells, Lewis lung cancer cells and other cancer cell lines and tumor tissue protein lysates, 48 h treatment, read-out: Effective concentration to increase Caspase-3 by 50%
Excerpt: as §11, §12

[6] = system: human liver cancer cells SMMC7721; experiment: MTT growth inhibition, SMMC7721 cells; assay type: cell-based; settings: SMMC-7721, S-7721 (SMMC7721), 72 h after treatment, read-out: Drug concentration (IC50) at which 50% cancer cells survived
Excerpt: as §1, §2, §3, §4, §5, §6, §7, §8, §9, §10

E-cadherin = experiment: Western Blotting, increase of E-cadherin level; assay type: cell-based; settings: liver cancer cells, Lewis lung cancer cells and other cancer cell lines and tumor tissue protein lysates, 48 h treatment, read-out: Effective concentration to increase E-cadherin by 50%
Excerpt: as §11, §12

[7] = system: human liver cancer cells HepG2; experiment: MTT growth inhibition, HepG2 cells; assay type: cell-based; settings: 72 h after treatment, read-out: Drug concentration (IC50) at which 50% cancer cells survived
Excerpt: as §1, §2, §3, §4, §5, §6, §7, §8, §9, §10

p21 = experiment: Western Blotting, increase of p21 level; assay type: cell-based; settings: liver cancer cells, Lewis lung cancer cells and other cancer cell lines and tumor tissue protein lysates, 48 h treatment, read-out: Effective concentration to increase p21 by 50%
Excerpt: as §11, §12

T2 sequence (Q15910 whole entry): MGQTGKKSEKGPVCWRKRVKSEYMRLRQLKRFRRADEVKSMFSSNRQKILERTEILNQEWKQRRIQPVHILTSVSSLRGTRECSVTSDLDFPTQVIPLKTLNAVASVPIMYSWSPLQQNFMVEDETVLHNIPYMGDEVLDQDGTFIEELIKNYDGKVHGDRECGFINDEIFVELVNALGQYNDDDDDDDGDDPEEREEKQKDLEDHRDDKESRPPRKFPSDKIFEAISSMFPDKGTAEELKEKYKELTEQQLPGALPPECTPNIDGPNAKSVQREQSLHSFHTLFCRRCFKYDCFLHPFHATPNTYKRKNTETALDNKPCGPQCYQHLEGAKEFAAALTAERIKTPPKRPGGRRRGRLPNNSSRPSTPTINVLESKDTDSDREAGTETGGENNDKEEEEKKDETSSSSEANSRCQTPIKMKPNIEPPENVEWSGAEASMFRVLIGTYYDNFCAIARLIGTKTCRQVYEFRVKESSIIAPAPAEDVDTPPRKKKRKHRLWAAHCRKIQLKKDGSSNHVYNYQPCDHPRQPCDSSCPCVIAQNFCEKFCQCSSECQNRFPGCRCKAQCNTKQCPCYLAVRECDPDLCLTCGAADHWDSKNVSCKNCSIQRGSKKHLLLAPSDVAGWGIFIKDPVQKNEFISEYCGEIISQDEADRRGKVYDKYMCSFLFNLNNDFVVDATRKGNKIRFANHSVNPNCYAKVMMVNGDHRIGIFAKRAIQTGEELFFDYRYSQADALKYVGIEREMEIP
T2 sequence (O75530 whole entry partner): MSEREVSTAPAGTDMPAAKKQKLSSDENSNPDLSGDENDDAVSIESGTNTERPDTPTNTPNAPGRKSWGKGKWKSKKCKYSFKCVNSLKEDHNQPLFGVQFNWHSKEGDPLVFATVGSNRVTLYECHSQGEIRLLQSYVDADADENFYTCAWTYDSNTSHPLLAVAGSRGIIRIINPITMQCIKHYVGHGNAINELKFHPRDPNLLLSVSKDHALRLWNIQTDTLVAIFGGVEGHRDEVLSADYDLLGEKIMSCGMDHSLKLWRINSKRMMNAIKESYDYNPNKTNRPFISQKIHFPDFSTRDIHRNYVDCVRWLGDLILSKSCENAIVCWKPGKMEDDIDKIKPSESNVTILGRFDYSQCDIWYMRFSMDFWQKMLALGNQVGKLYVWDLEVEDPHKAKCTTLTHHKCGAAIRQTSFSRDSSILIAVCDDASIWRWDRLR
T2 sequence (Q15022 whole entry partner): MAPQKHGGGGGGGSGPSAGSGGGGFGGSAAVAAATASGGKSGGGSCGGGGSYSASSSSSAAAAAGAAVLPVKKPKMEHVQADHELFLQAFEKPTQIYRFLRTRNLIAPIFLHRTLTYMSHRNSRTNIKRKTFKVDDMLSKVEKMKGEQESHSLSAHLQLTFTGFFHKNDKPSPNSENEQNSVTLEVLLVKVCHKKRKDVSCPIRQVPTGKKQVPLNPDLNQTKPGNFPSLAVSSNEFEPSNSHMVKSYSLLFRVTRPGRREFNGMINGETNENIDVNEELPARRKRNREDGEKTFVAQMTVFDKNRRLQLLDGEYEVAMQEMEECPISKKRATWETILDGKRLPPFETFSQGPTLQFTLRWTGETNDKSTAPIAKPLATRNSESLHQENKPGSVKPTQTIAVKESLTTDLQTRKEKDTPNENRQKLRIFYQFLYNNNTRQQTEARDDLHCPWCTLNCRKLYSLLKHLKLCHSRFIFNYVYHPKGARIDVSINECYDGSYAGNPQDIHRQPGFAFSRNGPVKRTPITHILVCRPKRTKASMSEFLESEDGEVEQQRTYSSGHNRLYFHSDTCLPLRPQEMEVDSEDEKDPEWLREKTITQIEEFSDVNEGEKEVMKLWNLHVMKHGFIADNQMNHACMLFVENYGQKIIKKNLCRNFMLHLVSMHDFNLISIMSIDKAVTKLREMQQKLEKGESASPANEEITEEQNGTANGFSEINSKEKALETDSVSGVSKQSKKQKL
T1 sequence (Q61188 whole entry): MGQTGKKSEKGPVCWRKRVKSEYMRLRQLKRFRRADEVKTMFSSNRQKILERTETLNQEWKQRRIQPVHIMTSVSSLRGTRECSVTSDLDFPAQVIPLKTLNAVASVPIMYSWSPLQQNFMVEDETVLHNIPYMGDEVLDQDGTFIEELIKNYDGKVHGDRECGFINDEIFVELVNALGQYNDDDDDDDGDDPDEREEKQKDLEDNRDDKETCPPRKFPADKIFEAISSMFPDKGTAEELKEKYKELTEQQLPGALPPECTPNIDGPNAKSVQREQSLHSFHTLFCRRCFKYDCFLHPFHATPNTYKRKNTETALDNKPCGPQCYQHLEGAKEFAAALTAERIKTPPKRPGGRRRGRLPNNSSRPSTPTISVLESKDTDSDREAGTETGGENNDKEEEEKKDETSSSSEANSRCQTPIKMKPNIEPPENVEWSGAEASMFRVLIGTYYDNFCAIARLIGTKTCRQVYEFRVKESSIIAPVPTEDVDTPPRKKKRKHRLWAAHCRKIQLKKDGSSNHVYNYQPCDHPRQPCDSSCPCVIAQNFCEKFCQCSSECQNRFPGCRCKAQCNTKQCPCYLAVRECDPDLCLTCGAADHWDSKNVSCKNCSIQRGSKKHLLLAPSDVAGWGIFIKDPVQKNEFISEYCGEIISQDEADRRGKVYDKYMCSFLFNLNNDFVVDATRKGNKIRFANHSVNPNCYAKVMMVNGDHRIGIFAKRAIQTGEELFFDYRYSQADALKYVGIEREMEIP
T1 sequence (Q921E6 whole entry partner): as the sequence (O75530 whole entry partner) above
T1 sequence (Q80U70 whole entry partner): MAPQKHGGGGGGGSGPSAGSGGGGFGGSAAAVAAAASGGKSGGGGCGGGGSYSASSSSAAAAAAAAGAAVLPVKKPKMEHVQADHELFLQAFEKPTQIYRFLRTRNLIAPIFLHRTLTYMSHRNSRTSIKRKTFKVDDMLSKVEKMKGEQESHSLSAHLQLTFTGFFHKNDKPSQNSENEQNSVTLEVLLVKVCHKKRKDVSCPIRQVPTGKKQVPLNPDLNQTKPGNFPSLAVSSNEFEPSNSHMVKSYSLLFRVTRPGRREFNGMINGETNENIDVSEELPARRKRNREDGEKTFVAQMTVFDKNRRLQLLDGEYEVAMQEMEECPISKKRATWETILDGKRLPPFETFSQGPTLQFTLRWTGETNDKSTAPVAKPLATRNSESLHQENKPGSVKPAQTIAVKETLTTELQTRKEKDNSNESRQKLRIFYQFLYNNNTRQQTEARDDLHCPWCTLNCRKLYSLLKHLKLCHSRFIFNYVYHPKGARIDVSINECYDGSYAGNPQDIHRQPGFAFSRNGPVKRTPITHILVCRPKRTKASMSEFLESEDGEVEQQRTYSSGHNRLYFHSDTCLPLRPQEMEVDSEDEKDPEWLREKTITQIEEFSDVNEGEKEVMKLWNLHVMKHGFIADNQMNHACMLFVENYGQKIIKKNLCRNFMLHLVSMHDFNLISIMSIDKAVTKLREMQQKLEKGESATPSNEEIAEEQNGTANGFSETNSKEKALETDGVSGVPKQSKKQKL

SMILES: O=C(CCCCCCC(=O)Nc1ccccc1)NO [SAHA, suberoylanilide hydroxamic acid, reference compound]
- inhibition (EZH2 [1]): 50%
- inhibition (EZH2 [2]; A549, A549 tumor grown in vivo): 52%
- decrease of EZH2 enzyme activity/inhibition rate (EZH2 [2]; A549 tumor grown in vivo): 53%*(A549)-
- inhibition (EZH2 [2]; MCF7, MCF7 tumor grown in vivo): 52%
- decrease of EZH2 enzyme activity/inhibition rate (EZH2 [2]; MCF7 tumor grown in vivo): 53%*(MCF7)
- decrease of EZH2 enzyme activity/inhibition rate (EZH2 [2]; MDA-MB231 tumor grown in vivo): 55%*(MDA-MB231)
- inhibition (EZH2 [2]; MDA-MB-231, MDA-MB231 tumor grown in vivo): 54%
- decrease of EZH2 enzyme activity/inhibition rate (EZH2 [2]; SMMC7721 tumor grown in vivo): 49%*(SMMC-7721); and 49%*(SMMC7721);
- inhibition (EZH2 [2]; SMMC-7721, SMMC7721 tumor grown in vivo): 48%

SMILES: CC[C@]1(O)C[C@H]2CN(CCc3c([nH]c4ccccc34)[C@@](C(=O)OC)(c3cc4c(cc3OC)N(C=O)[C@H]3[C@@](O)(C(=O)OC)[C@H](OC(C)=O)[C@]5(CC)C=CCN6CC[C@]43[C@@H]65)C2)C1 [Vincristine, reference compound]
- IC50 [3]: 220 µM
- EC50 (p53): > 70 µM
- IC50 [4]: 130 µM
- IC50 ([5]; A549 cells): > 70 µM
- IC50 ([5]; Hela cells): > 70 µM
- IC50 ([5]; MCF7 cells): > 70 µM
- IC50 ([5]; MDA-MB231 cells): > 70 µM
- IC50 ([5]; PANC-1 cells): > 70 µM
- IC50 ([5]; SMMC7721 cells): > 70 µM
- EC50 (Caspase3): > 70 µM
- IC50 [6]: 78 ± 30 µM
- EC50 (E-cadherin): > 70 µM
- IC50 [7]: 37 µM
- EC50 (p21): > 70 µM
